molecular target: purified Human plasma Kallikrein (Homo sapiens (Human), UniProt P03952); assay: Kallikrein Assay; format: biochemical; conditions: purified Human plasma Kallikrein 0.5 nM; substrate Acetyl-K-P-R-AFC; 50 mM HEPES pH 7.4; Ki from IC50 by Cheng Prusoff
Protocol: (§1) The effectiveness of a compound of the present invention as an inhibitor of Kallikrein can be determined using a relevant purified serine protease, and an appropriate synthetic substrate. The rate of hydrolysis of the chromogenic or fluorogenic substrate by the relevant serine protease was measured both in the absence and presence of compounds of the present invention. Assays were conducted at rt or at 37° C. […] A decrease in the rate of fluorescence change in the presence of inhibitor is indicative of enzyme inhibition. Such methods are known to one skilled in the art. The results of this assay are expressed as the inhibitory constant, Ki.
Kallikrein determinations were made in 50 mM HEPES buffer at pH 7.4 containing 150 mM NaCl, 5 mM CaCl2, and 0.1% PEG 8000 (polyethylene glycol; Fisher Scientific). Determinations were made using purified Human plasma Kallikrein at a final concentration of 0.5 nM (Enzyme Research Laboratories) and the synthetic substrate, Acetyl-K-P-R-AFC (Sigma # C6608) at a concentration of […].
Times required to achieve equilibration between enzyme and inhibitor were determined in control experiments. […] IC50 was determined by inflection point from a four parameter logistic curve fit. Ki was calculated using the Cheng Prusoff equation, Ki=IC50/(1+([S]/Km)).

purified Human plasma Kallikrein, sequence (P03952 391-638): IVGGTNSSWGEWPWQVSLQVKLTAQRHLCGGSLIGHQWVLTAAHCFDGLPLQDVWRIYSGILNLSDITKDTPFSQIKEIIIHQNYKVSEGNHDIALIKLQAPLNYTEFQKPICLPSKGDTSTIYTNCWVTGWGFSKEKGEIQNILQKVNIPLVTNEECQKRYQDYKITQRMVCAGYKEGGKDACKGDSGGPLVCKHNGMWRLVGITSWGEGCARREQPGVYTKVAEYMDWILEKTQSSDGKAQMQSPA
purified Human plasma Kallikrein, sequence (P03952 20-390 partner): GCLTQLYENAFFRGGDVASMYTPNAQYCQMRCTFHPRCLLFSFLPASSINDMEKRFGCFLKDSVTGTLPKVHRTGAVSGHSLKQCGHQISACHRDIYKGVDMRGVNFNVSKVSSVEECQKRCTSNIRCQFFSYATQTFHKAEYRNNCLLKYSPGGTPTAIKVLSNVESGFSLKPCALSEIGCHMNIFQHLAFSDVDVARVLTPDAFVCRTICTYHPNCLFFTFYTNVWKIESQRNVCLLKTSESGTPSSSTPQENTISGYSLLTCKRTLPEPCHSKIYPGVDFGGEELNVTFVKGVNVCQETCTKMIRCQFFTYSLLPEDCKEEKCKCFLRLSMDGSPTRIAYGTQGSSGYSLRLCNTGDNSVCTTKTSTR

Compared with `COC(=O)Nc1ccc2c(c1)NC(=O)CCCC[C@H](c1ccc(-c3c(F)cccc3OC(F)F)c[n+]1[O-])c1cccc-2c1` (single isomer, unassigned) [Example 34], `COC(=O)Nc1ccc2c(c1)NC(=O)CCCC[C@H](c1ccc(-c3c(F)ccc(Cl)c3F)c[n+]1[O-])c1ccc(F)c-2c1` (single isomer, unassigned) [Example 68] is 2.4-fold lower in Ki: 5.01 nM for the first, 2.09 nM for the second.

`COC(=O)Nc1ccc2c(c1)NC(=O)CCCC[C@H](c1ccc(-c3cc(Cl)ccc3-c3cnco3)c[n+]1[O-])c1cccc-2c1` (single isomer, unassigned) [Example 35] and `COC(=O)Nc1ccc2c(c1)NC(=O)CCCC[C@H](c1ccc(-c3cc(Cl)ccc3-n3cc(C4CC4)nn3)c[n+]1[O-])c1cccc-2c1` (single isomer, unassigned) [Example 38] are within 1.5-fold of each other in Ki: 0.7 nM for the first, 0.95 nM for the second.

First: COC(=O)Nc1ccc2c(c1)NC(=O)CCCC[C@H](c1ccc(-c3cc(Cl)ccc3-n3cnnn3)c[n+]1[O-])c1cc-2ncc1F (single isomer, unassigned) [Example 71]
Second: COC(=O)Nc1ccc2c(c1)NC(=O)CCCCC(c1ccc(-c3c(F)ccc(Cl)c3F)c[n+]1[O-])c1ccnc-2c1 (single isomer, unassigned) [Example 93-a, 5-(3-Chloro-2,6-difluorophenyl)-2-(2^4-((methoxycarbonyl)amino)-4-oxo-3-aza-1 (2,4)-pyridina-2(1,2)-benzenacyclononaphane-9-yl)pyridine 1-oxide]
The Ki of the first is 5.8-fold lower: 0.33 nM for the first, 1.92 nM for the second.

Going from `COC(=O)Nc1ccc2c(c1)NC(=O)[C@H](C)CCC[C@H](c1ccc(-c3cc(Cl)ccc3OC(F)(F)F)c[n+]1[O-])c1cccc-2c1` (single isomer, unassigned) [Example 77-a] to `COC(=O)Nc1ccc2c(c1)NC(=O)[C@@H](C)CCC[C@H](c1ccc(-c3cc(Cl)ccc3OC(F)(F)F)c[n+]1[O-])c1cccc-2c1` (single isomer, unassigned) [Example 77-b], the Ki rises from 1.69 nM to 17.3 nM (10-fold).

Going from `COC(=O)Nc1ccc2c(c1)NC(=O)C(C)CCCC(c1cc(OC)c(-c3c(F)ccc(Cl)c3F)c[n+]1[O-])c1cccc-2c1` (single isomer, unassigned) [Example 88-b, 5-(3-Chloro-2,6-difluorophenyl)-4-methoxy-2-(2^4-((methoxycarbonyl)amino)-5-methyl-4-oxo-3-aza-1(1,3),2(1,2) -dibenzenacyclononaphane-9-yl)pyridine 1-oxide] to `COC(=O)Nc1ccc2c(c1)NC(=O)C(C)CCCC(c1ccc(-c3c(F)ccc(Cl)c3F)c[n+]1[O-])c1nc-2c[nH]1` (single isomer, unassigned) [Example 114-a, (Z)-5-(3-chloro-2,6-difluorophenyl)-2-(2^4-((methoxycarbonyl)amino)-5-methyl-4-oxo-1^1H-3-aza-1(4,2)-imidazola-2(1,2) -benzenacyclononaphane-9-yl)pyridine 1-oxide], the Ki falls from 2.67 nM to 0.24 nM (11-fold).

Compared with `COC(=O)Nc1ccc2c(c1)NC(=O)C(C)CCCC(c1cc(OC)c(-c3c(F)ccc(Cl)c3F)c[n+]1[O-])c1cccc-2c1` (single isomer, unassigned) [Example 88-d, 5-(3-Chloro-2,6-difluorophenyl)-4-methoxy-2-(2^4-((methoxycarbonyl)amino)-5-methyl-4-oxo-3-aza-1(1,3),2(1,2) -dibenzenacyclononaphane-9-yl)pyridine 1-oxide], `COC(=O)Nc1ccc2c(c1)NC(=O)C(C)CCCC(c1ccc(-c3c(F)ccc(Cl)c3F)c[n+]1[O-])c1nc-2c[nH]1` (single isomer, unassigned) [Example 114-c, (Z)-5-(3-chloro-2,6-difluorophenyl)-2-(2^4-((methoxycarbonyl)amino)-5-methyl-4-oxo-1^1H-3-aza-1(4,2)-imidazola-2(1,2) -benzenacyclononaphane-9-yl)pyridine 1-oxide] is 6.7-fold lower in Ki: 5.21 nM for the first, 0.78 nM for the second. The second binds more tightly here.

Going from `COC(=O)Nc1ccc2c(c1)NC(=O)CCCCC(c1ccc(-c3cc(Cl)ccc3-n3cc(C(=O)O)nn3)cn1)c1cccc-2c1` (single isomer, unassigned) [Example 92-a, 1-(4-chloro-2-(6-(2^4-((methoxycarbonyl)amino)-4-oxo-3-aza-1(1,3),2(1,2) -dinenzenacyclononaphane-9-yl)pyridin-3-yl)phenyl)-1H-1,2,3-triazole-4-carboxylic acid] to `COC(=O)Nc1ccc2c(c1)NC(=O)C(C)CCCC(c1ccc(-c3c(F)ccc(Cl)c3F)cn1)c1cc-2ccn1` (single isomer, unassigned) [Example 95-a, Methyl (9-(5-(3-chloro-2,6-difluorophenyl)pyridin-2-yl)-5-methyl-4-oxo-3-aza-1(4,2)-pyridina-2(1,2)-benzenacyclononaphane-2^4-yl)carbamate], the Ki falls from 26 nM to 11.7 nM (2.2-fold).

Going from `COC(=O)Nc1ccc2c(c1)NC(=O)C(C)CCCC(c1ccc(-c3c(F)ccc(Cl)c3F)cn1)c1cc-2ccn1` (single isomer, unassigned) [Example 95-d, Methyl (9-(5-(3-chloro-2,6-difluorophenyl)pyridin-2-yl)-5-methyl-4-oxo-3-aza-1(4,2)-pyridina-2(1,2)-benzenacyclononaphane-2^4-yl)carbamate] to `COC(=O)Nc1ccc2c(c1)NC(=O)CCCC[C@H](c1ccc(-c3c(F)cccc3-n3cc(C(F)(F)F)cn3)c[n+]1[O-])c1nc-2c[nH]1` (single isomer, unassigned) [Example 115], the Ki rises from 10.8 nM to 331 nM (31-fold). The first binds more tightly here.

molecular target: purified human Factor XIa (Homo sapiens (Human), UniProt P03951); assay: Factor XIa Assay; format: biochemical; conditions: purified human Factor XIa 40 pM; substrate Z-Gly-Pro-Arg-AFC 100 μM; 50 mM HEPES pH 7.4; read-out: Human FXIa Ki
Sequence (P03951 388-625): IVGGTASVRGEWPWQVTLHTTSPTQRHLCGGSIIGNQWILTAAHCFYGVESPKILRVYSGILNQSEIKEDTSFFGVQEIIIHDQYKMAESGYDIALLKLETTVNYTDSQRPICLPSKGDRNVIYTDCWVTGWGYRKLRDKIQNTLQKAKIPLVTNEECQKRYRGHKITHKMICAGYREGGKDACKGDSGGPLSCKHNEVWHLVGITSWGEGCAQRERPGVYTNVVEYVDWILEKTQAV
Sequence (P03951 19-387 partner): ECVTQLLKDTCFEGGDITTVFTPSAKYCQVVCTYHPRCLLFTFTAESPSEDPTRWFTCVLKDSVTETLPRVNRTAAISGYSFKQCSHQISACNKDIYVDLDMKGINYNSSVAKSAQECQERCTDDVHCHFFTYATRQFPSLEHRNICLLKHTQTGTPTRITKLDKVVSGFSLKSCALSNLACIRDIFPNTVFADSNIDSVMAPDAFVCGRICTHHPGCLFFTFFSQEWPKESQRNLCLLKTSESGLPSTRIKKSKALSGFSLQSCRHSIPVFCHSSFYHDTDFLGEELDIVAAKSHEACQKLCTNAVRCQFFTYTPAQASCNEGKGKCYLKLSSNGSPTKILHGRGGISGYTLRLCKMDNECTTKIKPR
Protocol: as §1, with “Coagulation Factor XIa” for “Kallikrein”
Factor XIa determinations were made in 50 mM HEPES buffer at pH 7.4 containing 150 mM NaCl, 5 mM CaCl2, and 0.1% PEG 8000 (polyethylene glycol; JT Baker or Fisher Scientific). Determinations were made using purified human Factor XIa at a final concentration of 40 pM (Sekisui Diagnostics) and he synthetic substrate, Z-Gly-Pro-Arg-AFC, TFA salt (Sigma #C0980) at a concentration of 100 μM.
Times required to achieve equilibration between enzyme and inhibitor were determined in control experiments. Initial velocities of product formation in the absence (Vo) or presence of inhibitor (Vi) were measured. Assuming competitive inhibition, and that unity is negligible compared Km/[S], [I]/e, and [I]/e (where [S], [I], and e respectively represent the total concentrations, of substrate, inhibitor and enzyme), the equilibrium constant (Ki) for dissociation of the inhibitor from the enzyme can be obtained from the dependence of Vo/Vi on [I] shown in the following equation.

First: COC(=O)Nc1ccc2c(c1)NC(=O)CCCCC(c1ccc(-c3c(F)ccc(Cl)c3F)cn1)c1cc-2c(F)cn1 (stereo not drawn) [Example 60, methyl (9-(5-(3-chloro-2,6-difluorophenyl)pyridin-2-yl)-1^5-fluoro-4-oxo-3-aza-1(4,2)-pyridina-2(1,2)-benzenacyclononaphane-2^4-yl)carbamate]
Second: COC(=O)Nc1ccc2c(c1)NC(=O)CCCCC(c1ccc(-c3c(F)ccc(Cl)c3F)cn1)c1ccc(F)c-2n1 (stereo not drawn) [Example 63, methyl (9-(5-(3-chloro-2,6-difluorophenyl)pyridin-2-yl)-1^3-fluoro-4-oxo-3-aza-1(2,6)-pyridina-2(1,2)-benzenacyclononaphane-2^4-yl)carbamate]
The Ki of the first is lower: 342 nM for the first, > 875 nM for the second.

First: COC(=O)Nc1ccc2c(c1)NC(=O)CCCCC(c1ccc(-c3c(F)ccc(Cl)c3F)cn1)c1cc-2ccn1 (stereo not drawn) [Example 62, methyl (9-(5-(3-chloro-2,6-difluorophenyl)pyridin-2-yl)-4-oxo-3-aza-1(4,2)-pyridina-2(1,2)-benzenacyclononaphane-2^4-yl)carbamate]
Second: COC(=O)Nc1ccc2c(c1)NC(=O)CCCCC(c1ccc(-c3c(F)ccc(Cl)c3F)cn1)c1cc-2ncn1 (stereo not drawn) [Example 64, methyl (9-(5-(3-chloro-2,6-difluorophenyl)pyridin-2-yl)-4-oxo-3-aza-1(4,6)-pyrimidina-2(1,2)-benzenacyclononaphane-2^4-yl)carbamate]
The Ki of the first is 5-fold lower: 33 nM for the first, 164 nM for the second.

`COC(=O)Nc1ccc2c(c1)NC(=O)CCCCC(c1ccc(-c3c(F)ccc(Cl)c3F)c[n+]1[O-])c1ccc(F)c-2n1` (stereo not drawn) [Example 74, 5-(3-chloro-2,6-difluorophenyl)-2-(1^3-fluoro-2^4-((methoxycarbonyl)amino)-4-oxo-3-aza-1(2,6)-pyridina-2(1,2)-benzenacyclononaphane-9-yl)pyridine 1-oxide] and `COC(=O)Nc1ccc2c(c1)NC(=O)CCCCC(c1ccc(-c3c(-n4cc(C(F)(F)F)cn4)ccc(Cl)c3F)c[n+]1[O-])c1nc-2c[nH]1` (stereo not drawn) [Example 116] are within 1.5-fold of each other in Ki: 180 nM for the first, 208 nM for the second.

Compared with `Cn1cc2c(n1)-c1cccc(c1)C(c1ccc(-c3c(F)ccc(Cl)c3F)c[n+]1[O-])CCCCC(=O)N2` (stereo not drawn) [Example 163, 5-(3-chloro-2,6-difluorophenyl)-2-(1^1-methyl-8-oxo-1^1H-9-aza-1(3,4) -pyrazola-2(1,3)-benzenacyclononaphane-3-Yl)pyridine 1-oxide], `Cn1ncc2c1-c1cccc(c1)C(c1ccc(-c3c(F)ccc(Cl)c3F)c[n+]1[O-])CCCCC(=O)N2` (stereo not drawn) [Example 164, 5-(3-chloro-2,6-difluorophenyl)-2-(1^1-methyl-8-oxo-1H-9-aza-1(5,4) -pyrazola-2(1,3)-benzenacyclononaphane-3-Yl)pyridine 1-oxide] is higher in Ki: 22.6 nM for the first, > 875 nM for the second.
